{"source": "paper PMC10823468", "about": "“Design, Synthesis, and Evaluation of New 1H-Benzo[d]imidazole Based PqsR Inhibitors as Adjuvant Therapy for Pseudomonas aeruginosa Infections” (Journal of Medicinal Chemistry, 2024)", "key": {"[1]": {"system": "AQ production in P. aeruginosa laboratory strains and CF isolates", "test": "Alkyl quinolone (AQ: HHQ, PQS, HQNO) quantification by LC-MS/MS", "format": "cell-based, Pseudomonas aeruginosa", "source_text": "PqsR directly regulates the biosynthesis of diverse AQs, of which HHQ and PQS act as QS molecules, while others such as 2-heptyl- 4-hydroxyquinoline N-oxide (HQNO) are potent cytochrome bc1 inhibitors that contribute to the environmental competitiveness of this pathogen.[9],[28] Previous studies have shown that PQS is a multifunctional iron chelator acting via PqsR-dependent and PqsR-independent pathways, contributing directly to iron acquisition and microvesicle formation.[29] […] PqsR inhibition reduces production of AQ, which can be quantified to serve as a direct readout for pqs system inhibition.[9] To this end, 6f was incubated with various P. aeruginosa laboratory strains and CF isolates and its impact on AQ production determined quantitatively using LCMS/MS and compared with untreated samples.\nFor each test sample, 100 μL of sterile filtered supernatant was spiked with 10 μL of an internal standard solution (10 μM d4-PQS in MeOH) and diluted with water to a total volume of 500 μL. Samples were then extracted three times with an 0.5 mL aliquot of ethyl acetate, vortex mixing the aqueous/organic mix for 2 min, then removing the organic phase once the layers had successfully partitioned. For each sample, the combined organic extracts were dried under vacuum and redissolved in 100 μL of MeOH prior to analysis. For the LC-MS/MS analysis of supernatant extracts, the chromatography was achieved using a Shimadzu series 10AD VP LC system (Columbia, MD, USA). The LC column, maintained at 40 °C, was a Phenomenex Gemini C18 (3.0 μm, 100 mm × 3.0 mm) (Macclesfield, Cheshire, UK) with an appropriate guard column. Mobile phase A was 0.1% (v/v) formic acid in water containing 2 mM 2-picolinic acid, and mobile phase B 0.1% (v/v) formic acid in methanol. The flow rate throughout the chromatographic separation was 450 μL/min. After an injection of a 2 μL/sample, a binary gradient, beginning initially at 30% B, increased linearly to 99% B over 5 min. The composition remained at 99% B for 3 min, decreased to 30% B over 1 min, and stayed at this composition for 4 min, to allow for column equilibration. The MS system used for analyte detection was an Applied Biosystems Qtrap 4000 hybrid triple-quadrupole linear ion trap mass spectrometer (Foster City, CA, USA), equipped with an electrospray ionization (ESI) interface. Instrument control, data collection, and analysis were conducted using Analyst software (Foster City, CA, USA). […] Where chromatographic peaks for HHQ, HQNO, and PQS were detected, a peak area was determined, and analyte peak area/internal standard peak area calcdulated."}, "[2]": {"system": "PAO1-L biofilms", "test": "Biofilm viability assay, method 1 (ciprofloxacin, LIVE/DEAD, CLSM)", "format": "cell-based, Pseudomonas aeruginosa", "settings": "6 and 24 h", "protocol": "Biofilms are bacterial communities that are highly tolerant to antibiotics.[33] […] Therefore, pharmacological interference with the pqs machinery could sensitize PA biofilms to antibiotics.[34] To evaluate this effect, PAO1-L biofilms were grown for […] in the presence of 6f (method 1). Following treatment with the broad-spectrum antibiotic ciprofloxacin (Cip), the viability of biofilm bacteria was determined using LIVE/DEAD BacLight staining and confocal laser scanning microscopy (CLSM). The effect of 6f on biofilm viability as a single treatment or in combination with subinhibitory concentration of Cip was examined at two different time points (6 and 24 h after treatment) to establish whether this PqsR antagonist enhanced the activity of the antibiotic. […] It is noteworthy that the effect was greater at 6 h treatment compared with 24 h.\nFigure 6 (A) Representative CLSM 3D Z-stack images of PAO1-L biofilms after 24 h growth with or without 6f and further treatment for 6 or 24 h with no treatment (control), 6f (10 μM), ciprofloxacin (Cip: 60 μg/mL), or a combination of 6f and Cip (10 μM and 60 μg/mL, respectively). Live bacteria are depicted in green (SYTO9 dye) and dead cells are shown in red color (propidium iodide stain). (B) Biofilm viability assay. Bar chart showing PAO1-L biofilm viability quantified after treatment with different conditions for 6 or 24 h. […]"}, "[3]": {"design": "method as in PMID 33073099", "settings": "human microsomes; cited from earlier work"}, "[4]": {"design": "method as in PMID 33073099", "settings": "rat microsomes; cited from earlier work"}, "[5]": {"design": "method as in PMID 33073099", "settings": "rats; intratracheal; coarse suspension; cited from earlier work"}}, "note": "Where two headings read alike, the source gives them in different places.", "data": [{"smiles": "CC(C)n1c(NCC(O)COc2ccc(CC#N)cc2)nc2ccc(Cl)cc21", "note": "(centres unmarked) [Compound 6f, 2-(4-(3-((6-Chloro-1-isopropyl-1H-benzo[d]imidazol-2-yl)amino)-2-hydroxypropoxy)phenyl) Acetonitrile]", "values": [{"measurement": "HHQ and PQS levels", "setting": "[1]; 0.2 μM 6f, IPCD1331", "value": "no significant reduction"}, {"measurement": "HQNO concentrations", "setting": "[1]; 0.2 μM 6f, IPCD1451 CF isolate", "value": "nonsignificant reduction"}, {"measurement": "AQ production", "setting": "[1]; 0.2 μM 6f, LESB58 strain", "value": "moderate but significant reduction"}, {"measurement": "HHQ and PQS levels", "setting": "[1]; 0.2 μM 6f, PAO1-L, PA14 and IPCD48 CF isolate, vs untreated", "value": "substantially reduced"}, {"measurement": "inhibition at 0.2 µM", "setting": "[1]; Pseudomonas aeruginosa, read-out: HQNO inhibition", "value": "20 to 60", "unit": "%"}, {"measurement": "biofilm viability, combination with ciprofloxacin", "setting": "[2]; 6f 10 μM + Cip 60 μg/mL", "value": "significant potentiation of antibiotic activity"}, {"measurement": "biofilm viability, single treatment", "setting": "[2]; 6f 10 μM alone", "value": "no significant effect"}, {"measurement": "half-life", "setting": "[3]", "value": "relatively short"}, {"measurement": "half-life", "setting": "[4]", "value": "relatively short"}, {"measurement": "clearance from lung to plasma", "setting": "[5]", "value": "rapid clearance"}, {"measurement": "systemic clearance", "setting": "[5]", "value": "fast systemic clearance"}]}]}
